What was measured:
[1] = tested on: allogenic skin graft (WKAH rat to F344 rat); assay: Allogenic skin graft in rats, WKAH rat skin to F344 rat; assay type: in vivo; settings: oral; for mean survival time of skin graft: once a day for 14 days, dose 1 mg/kg or 10 mg/kg (FIG. 1), not stated which
Excerpt: (§1) A full-thickness skin graft (1.5×1.5 cm) of a 4-week-old male WKAH rat or LEW rat is grafted to a graft to a graft bed on the back of a 4-week-old male F344 rat by suture. The graft is covered with a sterile gauze and bound. The bandage is removed 5 days after the grafting and the skin graft is observed daily until it is rejected. […] The number of days from the grafting to rejection is taken as a graft survival days. Test compounds are intraperitoneally, intravenously or orally administered repeatedly once a day for 14 days.
The comparative compound 1 was 2-amino-2-(2-(4-(4-phenylbutyloxy)phenyl)ethyl)propane-1,3-diol disclosed in WO94/08943, comparative compound 2 was 2-amino-2-methyl-2-(2-(4-(4-phenylbutyloxy)phenyl)butanol disclosed in WO96/06068.

[2] = tested on: allogenic skin graft (LEW rat to F344 rat); assay: Allogenic skin graft in rats, LEW rat skin to F344 rat; assay type: in vivo
Excerpt: EXPERIMENTAL EXAMPLE 12 (Prolonging effect of skin graft on allogenic skin graft in rats)
as §1

[3] = Body weight change on allogenic skin graft in rats; assay type: in vivo, rat; settings: 13 days of consecutive repeat oral administration of 10 mg/kg, rats of allogenic skin graft test (FIG. 2)
Description: (Body weight change on allogenic skin graft in rats)
The changes in body weight in rats of Experimental Example 12 on testing of allogenic skin graft in rats, after 13 days of consecutive repeat oral administration of 10 mg/kg of test compounds are shown in FIG. 2.

Row | Compound | prolonging effect on graft survival compared with comparative compound 2 [1] | prolonging effect on graft survival days compared to control group and comparative compound 1 group [1] | mean survival time of skin graft [1] [days] | prolonging effect on graft survival compared to control group administered with vehicle alone [2] | mean survival time of skin graft ([2]; dose not stated) [days] | change in body weight [3]
1 | NC(CO)(CO)CCc1ccc(C(=O)CCCCc2ccccc2)cc1 [Compound (I-a), 2-amino-2-(2-(4-(1-oxo-5-phenylpentyl)phenyl)ethyl)propane-1,3-diol] | equivalent prolonging effect | prolonged graft survival days statistically significantly | 16.6 ± 1.2 | statistically significant prolonging effect | ≥ 20 | natural gain of body weight as in the control group
2 | NC(CO)(CO)CCc1ccc(OCCCCc2ccccc2)cc1 [comparative compound 1, 2-amino-2-(2-(4-(4-phenylbutyloxy)phenyl)ethyl)propane-1,3-diol, reference compound] |  |  | 11.9 ± 0.7 |  |  | a suppressive effect on the gain of the body weight
3 | CC(N)(CO)CCc1ccc(OCCCCc2ccccc2)cc1 (stereo not shown) [comparative compound 2, reference compound] |  |  | 15.6 ± 1.4 |  |  | a suppressive effect on the gain of the body weight

Reference: patent publication USRE39072E1, “2-aminopropane-1,3-diol compounds, medicinal use thereof, and intermediates in synthesizing the same” (Mitsubishi Pharma Corporation, priority 1997, dated 2006)
